Reference: ChEMBL document CHEMBL1121625, “Crystal structures of calcium channel antagonists: 2,6-dimethyl-3,5-dicarbomethoxy-4-[2-nitro-, 3-cyano-, 4-(dimethylamino)-, and 2,3,4,5,6-pentafluorophenyl]-1,4-dihydropyridine” (1980)

Species: Cavia porcellus
Assay: The compound was tested for inhibition of muscarinic responses in guinea pig ileal longitudinal smooth muscle
Type: functional, Muscle tissue

Point of comparison: `COC(=O)C1=C(C)N=C(C)/C(=C(\O)OC)C1c1cccc(C#N)c1` (centres undefined), ID50 300 nM. Against it:
- COC(=O)C1=C(C)NC(C)=C(C(=O)OC)C1c1ccccc1[N+](=O)[O-] [NIFEDIPINE] — 59-fold lower, 5.1 nM
- COC(=O)C1=C(C)N=C(C)/C(=C(\O)OC)C1c1c(F)c(F)c(F)c(F)c1F (centres undefined) — 330-fold lower, 0.9 nM
- COC(=O)C1=C(C)NC(C)=C(C(=O)OC)C1c1ccc(N(C)C)cc1 — 170-fold higher, 50000 nM
